Experimental findings from PMC8482806, “A Novel Blood-Brain Barrier-Permeable Chemotherapeutic Agent for the Treatment of Glioblastoma” (Cureus, 2021) are described below.

The nature of series [1]: Maximum tolerated dose in Sprague-Dawley rats. Type of series: in vivo, rat. Conditions: highest dose 10 mg/kg IV on day zero. As for the experimental part: Figure 7 Maximum tolerated dose in rats Sprague-Dawley rats (4 per arm) were dosed IV on day zero with vehicle or 2.5, 5, or 10 mg/kg of QBS10072S. Animals were monitored for two weeks for body weight changes (A), survival (B), and complete blood counts, including white blood cells (C), neutrophils (D), lymphocytes (E), red blood cells (F), platelets (G), and reticulocytes (H). Cell count results are expressed as cell count per μl. The normal cell count range for each type of cell is between the “max” and “min” lines, and the average value is indicated with a dotted line. Based on allometric scaling, 2.5, 5, and 10 mg/kg in rats is equivalent to 5, 10, and 20 mg/kg.

Series [2] relates to LLC-PK1 inducible LAT1-expressing cell line. The series can be described thus: Modified clonogenic cell viability assay (CellTiter-Glo), LLC-PK1 inducible LAT1-expressing cells. Type of series: cell-based. Conditions: for EC50: Sus scrofa, read-out: EC50, suppression of viability. The procedure:
(§1) In vitro activity of QBS10072S was assessed using a modified clonogenic cell viability assay in 96-well clear-bottom plates. For the LLC-PK1 inducible LAT1-expressing cell line, 1000 cells/well were plated and cells were treated with either butyrate alone (non-induced) or with both butyrate and doxycycline (induced) as described above. For GBM cell lines, 2000 cells/well were plated. On day 2 (GBM) or day 3 (LLC-PK1) after original plating, cells were washed twice with PBS and incubated with 50 μL of various concentrations of QBS10072S in PBS in at least quadruplicate. After 30 minutes at 37°C, 200 μL of growth medium was added to each well. Clonal populations were allowed to grow until the control wells (mock treatment) were near confluence (7 to 10 days). At this point, 170 μL media were removed and 60 μL CellTiter-Glo® (Promega, Madison, WI) were added to each well. Plates were placed on an orbital shaker for three minutes to lyse the cells and then incubated for an additional 10 minutes at RT to stabilize the luminescent signal. Luminescence was recorded using an EnSpire® Multimode Plate Reader (Perkin Elmer). Background (luminescence from wells incubated with 100 μM melphalan or lomustine) was subtracted and data were normalized to the control. EC50s were determined by non-linear regression using GraphPad Prism.
For orientation: Cellular ATP, detected with luciferase, serves as a proxy for viable cell number.

A further series deals with LN229 cells. The series can be described thus: Cell viability assay (CellTiter-Glo), LN229. Conditions: Homo sapiens, LN-229; Cell Line: LN229; read-out: LC50 (μM ± SD). Type of series: cell-based. The procedure:
as §1

The nature of series [3]: [14C]-QBS10072S distribution by quantitative whole-body autoradiography in mice with intracranial LN229 tumors. Type of series: in vivo, mouse. Conditions: 5 mg/kg IV. As for the experimental part:
Athymic mice with intracranial implanted LN229 cells received a single IV dose of 5 mg/kg and 200 μCi/kg [14C]-QBS10072S into the tail vein using the formulation described above. Animals (one per time point) were sacrificed one, eight, and 24 hours post-dose, and frozen in a hexane/solid carbon dioxide bath for at least 10 minutes. The carcasses were processed as described for quantitative whole-body autoradiography. Briefly, sagittal sections (~ 40 μm thick) were cut using a microtome, mounted, and exposed to a [14C]-sensitive phosphor imaging plate for four days. The images were scanned and quantitated by image densitometry using MCID image analysis software. The concentrations of radioactivity were expressed as the μg equivalents of test article per gram sample (μg equiv/g). The upper and lower limits of quantification were 550 and 0.008 μg equiv/g, respectively (QPS, Newark, DE).

The next series relates to DBTRG cells. The series can be described thus: Cell viability assay (CellTiter-Glo), DBTRG. Conditions: Homo sapiens; Cell Line: DBTRG; read-out: LC50 (μM ± SD). Type of series: cell-based. The procedure:
as §1

A further series deals with 42MGBA cells. In words: Cell viability assay (CellTiter-Glo), 42MGBA. Type of series: cell-based. Conditions: Homo sapiens; Cell Line: 42M6BA; read-out: LC50 (μM ± SD). As for the experimental part: as §1
The test system of the next series is U87 cells. In words: WST1 cell viability assay, U87. Conditions: Homo sapiens, U-87 MG, read-out: LC50 (μM ± SD). Type of series: cell-based. The procedure:
In vitro activities of QBS10072S and temozolomide (TMZ) in U87 and U87-MGMT cells were assessed using the WST1 cell viability assay in 96-well plates in which 500/well of cells were plated in sextuplets for each condition. To avoid cell loss, the following washing and medium removing procedures were all done using a P200 pipet without vacuum aspiration. For QBS10072S treatment, cells were washed with PBS the next day and incubated with 50 μL of various concentrations of QBS10072S in PBS for 1 hour at 37°C. After incubation, 150 μL of growth medium was added to each well. The medium was subsequently changed every two days until day 7. For TMZ treatment, cells were treated with 100 μL of various concentrations of TMZ in a growth medium for 2 days. After incubation, cells were put back in a normal growth medium and continued culturing for five days. In the end, 10 μL of WST1 reagent was added to each well and incubated at 37°C for 4h before subjecting to plate reading at 450 nm and 690nm using an EnSpire multimode plate reader (PerkinElmer). Background (OD690nm) was subtracted and data were normalized to the control. LC50s were determined by non-linear regression using GraphPad Prism (GraphPad Software Inc., San Diego, California)
On the technique in general: Tetrazolium dyes change colour on reduction, which living cells bring about.

Like-named read-outs stand apart in the source and are kept apart here.

Broadly, the EC50 is the midpoint of the concentration-response curve. As to `Cc1ccc(N(CCCl)CCCl)cc1C[C@H](N)CC(=O)O` [QBS10072S, (+)-(3S)-amino-4-[5-[bis(2-chloroethyl)amino]-2-methyl-phenyl]butanoic acid], the maximum tolerated dose result in series [1] is recorded as “the highest dose was greater than the maximum tolerated dose”. Also, the EC50 was determined as 1 µM in series [2] (LLC-PK1, induced, high LAT1 expressing cells) and 5.5 µM in series [2] (LLC-PK1, non-induced cells, low endogenous LAT1). Further, the “potency induced vs. non-induced cells” value in series [2] (high LAT1 vs. non-induced) was found to be 5.5 times. The CC50 in the series on LN229 cells worked out at 16 ± 2 µM; with DBTRG cells, 5 ± 2 µM; in the series on 42MGBA cells, 40 ± 10 µM; in the series with U87 cells it was 14.7 ± 5.3 µM. The “level in brain tumor as % of blood levels” value in series [3] (1 hour post-dose) is 89%; in series [3] (8 hours post-dose), 73%; in series [3] (24 hours post-dose), 37%.
